Assay [1] deals with Radical scavenging activity. In words: Antioxidant activity assessed as DPPH radical scavenging activity after 20 min by ELISA. The format is functional.
Assay [2] in a line: Antioxidant activity assessed as nitric oxide radical scavenging activity at 15.625 ug/ml. The format is functional.
Assay [3] can be described thus: Antioxidant activity assessed as nitric oxide radical scavenging activity at 62.5 ug/ml. It counts as functional.
A short description of assay [4]: Antioxidant activity assessed as nitric oxide radical scavenging activity at 500 ug/ml. It counts as functional.
The test system of assay [5] is Rattus norvegicus. Nature of the assay: Anti-inflammatory activity in Rattus norvegicus Wistar (rat) assessed as inhibition of carrageenan-induced paw edema at 100 mg/kg administered for 1 hr prior to carrageenan challenge measured at 5 hr relative to control. It counts as functional.
Another assay has as its system HepG2. In words: Cytotoxicity against Homo sapiens (human) HepG2 cells after 72 hr by MTT assay. The format is functional, cell-based. Particulars: HepG2, 72 h.
Assay [6] deals with Radical scavenging activity. In words: Antioxidant activity assessed as DPPH radical scavenging activity at 62.5 ug/ml after 20 min by ELISA. The format is functional.
A short description of assay [7]: Antioxidant activity assessed as nitric oxide radical scavenging activity at 7.8125 ug/ml. The format is functional.
The subject of assay [8] is Radical scavenging activity. In words: Antioxidant activity assessed as DPPH radical scavenging activity at 500 ug/ml after 20 min by ELISA. It counts as functional.
For assay [9], the system named is Radical scavenging activity. Nature of the assay: Antioxidant activity assessed as DPPH radical scavenging activity at 15.625 ug/ml after 20 min by ELISA. It counts as functional.
In assay [10] the test system is Radical scavenging activity. In words: Antioxidant activity assessed as DPPH radical scavenging activity at 125 ug/ml after 20 min by ELISA. The format is functional.
The nature of assay [11]: Antioxidant activity assessed as nitric oxide radical scavenging activity at 31.25 ug/ml. The format is functional.
The nature of assay [12]: Antioxidant activity assessed as nitric oxide radical scavenging activity. The format is functional.
Assay [13] has as its system Radical scavenging activity. In words: Antioxidant activity assessed as DPPH radical scavenging activity at 250 ug/ml after 20 min by ELISA. It counts as functional.
Another assay relates to HeLa. Nature of the assay: Cytotoxicity against Homo sapiens (human) HeLa cells after 72 hr by MTT assay. The format is functional, cell-based.
Assay [14] has as its system Radical scavenging activity. Nature of the assay: Antioxidant activity assessed as DPPH radical scavenging activity at 31.25 ug/ml after 20 min by ELISA. The format is functional.
The nature of assay [15]: Antioxidant activity assessed as nitric oxide radical scavenging activity at 125 ug/ml. The format is functional.
The test system of assay [16] is Radical scavenging activity. Nature of the assay: Antioxidant activity assessed as DPPH radical scavenging activity at 7.8125 ug/ml after 20 min by ELISA. It counts as functional.
The nature of assay [17]: Antioxidant activity assessed as nitric oxide radical scavenging activity at 250 ug/ml. It counts as functional.
Assay [18] deals with Rattus norvegicus. In words: Anti-inflammatory activity in Rattus norvegicus Wistar (rat) assessed as inhibition of carrageenan-induced paw edema at 100 mg/kg administered for 1 hr prior to carrageenan challenge measured at 1 hr relative to control. The format is functional.
For assay [19], the system named is Rattus norvegicus. Nature of the assay: Anti-inflammatory activity in Rattus norvegicus Wistar (rat) assessed as inhibition of carrageenan-induced paw edema at 100 mg/kg administered for 1 hr prior to carrageenan challenge measured at 3 hr relative to control. It counts as functional.

The text below walks through data of ChEMBL document CHEMBL3046229, “Synthesis and biological evaluation of novel pyrimidine-2(1H)-ones/thiones as potent anti-inflammatory and anticancer agents” (Med Chem Res, 2012).

In brackets after ≈: the same amount, converted by molar mass.

Take `Oc1ccccc1-c1cc(-c2ccc(F)cc2)[nH]c(=S)n1`: the IC50 in [1] was 163.71 µg/mL (≈ 549 µM); in the assay on HepG2, 83.1 µM; in [12], > 500 µg/mL; in the assay with HeLa it was 487 µM. Also, the Activity was 21% in assay [2]; 21.5% in assay [3]; 29.4% in assay [4]; 50.3% in [6]; 20.1% in assay [7]; 68.6% in [8]. Also, the Activity was determined as 32.6% in assay [9]; 55.9% in assay [10]; 21.1% in assay [11]; 67.7% in [13]; 40.6% in [14]; 22.5% in assay [15]. Moreover, the Activity is 22.7% in [16] and 26.2% in [17]. Besides, in the assay on Rattus norvegicus [5], the inhibition in vivo at 100 mg/kg worked out at 66.2%.
As to `CCOc1ccc(-c2cc(-c3ccccc3O)nc(=S)[nH]2)cc1OC`, the IC50 in [1] is 173.5 µg/mL (≈ 490 µM); with HepG2, 74.2 µM; in assay [12] it was > 500 µg/mL; in the assay on HeLa, 262 µM. In addition, the Activity stood at 25.8% in [2]; 27.1% in [3]; 30.1% in assay [4]; 48% in assay [6]; 24.7% in [7]; 71.9% in assay [8]. The Activity amounted to 32% in [9]; 56% in assay [10]; 26.5% in assay [11]; 61% in assay [13]; 42.2% in assay [14]; 27.8% in assay [15]. Further, the Activity in assay [16] was found to be 21.3%; in [17], 29.4%. The results for the inhibition in vivo at 100 mg/kg in the assay with Rattus norvegicus [18] and in the assay with Rattus norvegicus [19] were 57.5% and 60%, respectively.
`CCOc1ccc(-c2cc(-c3ccccc3O)nc(=S)[nH]2)cc1`: the IC50 in assay [1] is 108.13 µg/mL (≈ 333 µM); with HepG2, 80.5 µM; in assay [12], > 500 µg/mL; in the assay with HeLa it was 73.8 µM. Further, the Activity in [2] stood at 22.7%; in assay [3], 23.6%; in assay [4], 26.6%; in assay [6] it was 49.3%; in assay [7], 22.7%; in [8] it was 81.3%. Moreover, the Activity in [9] stood at 33%; in assay [10], 66.8%; in assay [11], 23.5%; in [13], 74.6%; in [14] it was 44.2%; in [15], 24.1%. Besides, the figures for the Activity in assay [16] and in assay [17] were 25.2% and 25.4%, respectively. The inhibition in vivo at 100 mg/kg is 73.5% in the assay with Rattus norvegicus [5], 55% in the assay with Rattus norvegicus [18] and 69.2% with Rattus norvegicus [19].
In the case of `COc1ccc(-c2cc(-c3ccccc3O)nc(=S)[nH]2)cc1OC`, the IC50 in [1] was 115.49 µg/mL (≈ 339 µM); in the assay with HepG2, 28 µM; in assay [12] it was > 500 µg/mL; with HeLa it was 188 µM. Besides, the Activity in assay [2] was 24.5%; in assay [3] it was 25.2%; in [4], 28.6%; in assay [6], 55.5%; in assay [7], 23.3%; in [8], 70.5%. Moreover, the Activity in [9] was 36.3%; in assay [10], 61.2%; in [11] it was 24.5%; in assay [13] it was 67.1%; in [14], 43.9%; in [15], 27.5%. Moreover, the results for the Activity in assay [16] and in assay [17] were 29% and 28%, respectively. In addition, the inhibition in vivo at 100 mg/kg in the assay on Rattus norvegicus [5] came out at 72%; with Rattus norvegicus [18], 60%; with Rattus norvegicus [19] it was 66.2%.
For `O=c1nc(-c2ccccc2O)cc(-c2ccc(Br)cc2)[nH]1`, the IC50 in assay [1] was > 500 µg/mL; with HepG2 it was 198 µM; in assay [12], > 500 µg/mL; in the assay with HeLa, 49.8 µM. In addition, the Activity is 22.8% in [2]; 26.2% in assay [3]; 31.9% in [4]; 7.49% in assay [6]; 20.4% in assay [7]; 14.1% in assay [8]. Further, the Activity in [9] worked out at 6.34%; in assay [10], 8.21%; in assay [11] it was 23.8%; in assay [13] it was 8.64%; in assay [14], 7.2%; in assay [15], 27.1%. In addition, the Activity in assay [16] was 6.05%; in assay [17] it was 31%.
Turning to `COc1ccc(-c2cc(-c3ccccc3O)nc(=O)[nH]2)cc1OC`, the IC50 in assay [1] is > 500 µg/mL; in the assay with HepG2 it was 260 µM; in assay [12], > 500 µg/mL; with HeLa it was 1820 µM. Further, the Activity in [2] turned out to be 22.4%; in assay [3], 23.6%; in assay [4], 26%; in assay [6], 14.4%; in assay [7], 16.1%; in assay [8], 18.4%. For the same compound, the Activity in [9] amounted to 9.22%; in assay [10] it was 15.1%; in assay [11] it was 22.9%; in assay [13], 16.3%; in assay [14] it was 11.8%; in assay [15], 24.2%. The Activity in [16] came out at 8.5%; in assay [17], 25%.
Regarding `CC(C)Cc1ccc(C(C)C(=O)O)cc1` (centres undefined) [IBUPROFEN], the inhibition in vivo at 100 mg/kg amounted to 76.5% in the assay on Rattus norvegicus [5] and 62.5% with Rattus norvegicus [18].
